Laboratory results: PubChem BioAssay (NCI)
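Step 1: Grow cells in 96-well plates. Step 2: Expose to compound for 48 hours at 5 concentrations. Step 3: Interpolate endpoints linearly; if unreached, use highest concentration. GI50 is the concentration that inhibits growth by half. TGI denotes the concentration required for complete inhibition of growth.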

Assays:
Assay in all cases: NCI-60 cell line screen, 48 h
[1] = system: PC-3 prostate
[2] = system: U251 CNS
[3] = system: SK-MEL-5 melanoma
[4] = system: SW-620 colon
[5] = system: HCC-2998 colon
[6] = system: SN12C renal
[7] = system: DU-145 prostate
[8] = system: NCI/ADR-RES ovarian
[9] = system: MDA-MB-231 breast
[10] = system: EKVX NSCLC
[11] = system: MOLT-4 leukemia
[12] = system: CCRF-CEM leukemia
[13] = system: SK-MEL-2 melanoma
[14] = system: SNB-75 CNS
[15] = system: HT29 colon
[16] = system: HS 578T breast
[17] = system: T-47D breast
[18] = system: RPMI-8226 leukemia
[19] = system: HL-60(TB) leukemia
[20] = system: MDA-MB-435
[21] = system: MCF7 breast
[22] = system: SF-295 CNS
[23] = system: ACHN renal
[24] = system: SNB-19 CNS
[25] = system: A498 renal
[26] = system: UACC-62 melanoma
[27] = system: HCT-116 colon
[28] = system: NCI-H522 lung
[29] = system: HCT-15 colon
[30] = system: MALME-3M melanoma
[31] = system: CAKI-1 renal
[32] = system: BT-549 breast
[33] = system: KM12 colon
[34] = system: SK-OV-3 ovarian
[35] = system: SF-268 CNS
[36] = system: HOP-62 NSCLC
[37] = system: NCI-H23 lung
[38] = system: A549 NSCLC
[39] = system: IGROV1 ovarian
[40] = system: UO-31 renal
[41] = system: UACC-257 melanoma
[42] = system: SF-539 CNS
[43] = system: NCI-H460 lung
[44] = system: NCI-H226 lung
[45] = system: TK-10 renal
[46] = system: SK-MEL-28 melanoma
[47] = system: K-562 leukemia
[48] = system: 786-0 renal
[49] = system: SR leukemia
[50] = system: OVCAR-8 ovarian
[51] = system: RXF 393 renal
[52] = system: M14 melanoma

Question: Which GI50 [1] does the source give for `NC(=O)c1c(NC(=O)c2ccccc2C(F)(F)F)sc2c1CCC(=O)C2` here?
Answer: The GI50 was 307 nM.

Question: What about the TGI [1] of the same molecule?
Answer: The TGI was 4.43 µM.

Question: And the GI50 [2]?
Answer: Its GI50 is 990 nM.

Question: And the TGI [2]?
Answer: Its TGI is 19.1 µM.

Question: What about the GI50 [3] of the same molecule?
Answer: Its GI50 is 1780 nM.

Question: And the TGI [3]?
Answer: The TGI was 3.45 µM.

Question: What about the GI50 [4] of the same molecule?
Answer: Its GI50 is 402 nM.

Question: What about the TGI [4] of the same molecule?
Answer: Its TGI is 13.8 µM.

Question: What about the GI50 [5] of the same molecule?
Answer: The GI50 was 2880 nM.

Question: And the TGI [5]?
Answer: Its TGI is 12.3 µM.

Question: And the GI50 [6]?
Answer: Its GI50 is 2590 nM.

Question: And the TGI [6]?
Answer: Its TGI is 12.6 µM.

Question: What about the GI50 [7] of the same molecule?
Answer: Its GI50 is 4.54 µM.

Question: And the TGI [7]?
Answer: Its TGI is over 100 µM.

Question: And the GI50 [8]?
Answer: Its GI50 is 2330 nM.

Question: What about the TGI [8] of the same molecule?
Answer: The TGI was 18.3 µM.

Question: And the GI50 [9]?
Answer: The GI50 was 1950 nM.

Question: And the TGI [9]?
Answer: Its TGI is 4.3 µM.

Question: And the GI50 [10]?
Answer: Its GI50 is 2810 nM.

Question: What about the TGI [10] of the same molecule?
Answer: Its TGI is 12.1 µM.

Question: What about the GI50 [11] of the same molecule?
Answer: Its GI50 is 2020 nM.

Question: And the TGI [11]?
Answer: The TGI was 22.3 µM.

Question: And the GI50 [12]?
Answer: The GI50 was 429 nM.

Question: What about the TGI [12] of the same molecule?
Answer: Its TGI is over 100 µM.

Question: And the GI50 [13]?
Answer: The GI50 was 2500 nM.

Question: What about the TGI [13] of the same molecule?
Answer: Its TGI is 6.84 µM.

Question: And the GI50 [14]?
Answer: The GI50 was 1950 nM.

Question: And the TGI [14]?
Answer: The TGI was 8.2 µM.

Question: What about the GI50 [15] of the same molecule?
Answer: The GI50 was 1970 nM.

Question: And the TGI [15]?
Answer: Its TGI is 6.65 µM.

Question: What about the GI50 [16] of the same molecule?
Answer: The GI50 was 3.04 µM.

Question: And the TGI [16]?
Answer: The TGI was over 100 µM.

Question: What about the GI50 [17] of the same molecule?
Answer: The GI50 was 492 nM.

Question: And the TGI [17]?
Answer: The TGI was 5.71 µM.

Question: And the GI50 [18]?
Answer: Its GI50 is 360 nM.

Question: What about the TGI [18] of the same molecule?
Answer: The TGI was over 100 µM.

Question: What about the GI50 [19] of the same molecule?
Answer: The GI50 was 1100 nM.

Question: And the TGI [19]?
Answer: The TGI was 7.37 µM.

Question: And the GI50 [20]?
Answer: Its GI50 is 2940 nM.

Question: And the TGI [20]?
Answer: Its TGI is 8.7 µM.

Question: What about the GI50 [21] of the same molecule?
Answer: Its GI50 is 2240 nM.

Question: What about the TGI [21] of the same molecule?
Answer: The TGI was 9.87 µM.

Question: What about the GI50 [22] of the same molecule?
Answer: Its GI50 is 2550 nM.

Question: What about the TGI [22] of the same molecule?
Answer: Its TGI is 7.71 µM.

Question: And the GI50 [23]?
Answer: Its GI50 is 1010 nM.

Question: And the TGI [23]?
Answer: Its TGI is 2660 nM.

Question: And the GI50 [24]?
Answer: The GI50 was 3.74 µM.

Question: What about the TGI [24] of the same molecule?
Answer: Its TGI is over 100 µM.

Question: What about the GI50 [25] of the same molecule?
Answer: Its GI50 is 9.93 µM.

Question: What about the TGI [25] of the same molecule?
Answer: The TGI was 40.3 µM.

Question: What about the GI50 [26] of the same molecule?
Answer: The GI50 was 1290 nM.

Question: What about the TGI [26] of the same molecule?
Answer: Its TGI is 3.19 µM.

Question: What about the GI50 [27] of the same molecule?
Answer: Its GI50 is 493 nM.

Question: And the TGI [27]?
Answer: Its TGI is 8.14 µM.

Question: What about the GI50 [28] of the same molecule?
Answer: The GI50 was 391 nM.

Question: What about the TGI [28] of the same molecule?
Answer: The TGI was 1920 nM.

Question: What about the GI50 [29] of the same molecule?
Answer: Its GI50 is 493 nM.

Question: What about the TGI [29] of the same molecule?
Answer: The TGI was 2070 nM.

Question: What about the GI50 [30] of the same molecule?
Answer: The GI50 was 2000 nM.

Question: And the TGI [30]?
Answer: Its TGI is 5.25 µM.

Question: And the GI50 [31]?
Answer: Its GI50 is 1390 nM.

Question: What about the TGI [31] of the same molecule?
Answer: Its TGI is 3.05 µM.

Question: What about the GI50 [32] of the same molecule?
Answer: Its GI50 is 947 nM.

Question: And the TGI [32]?
Answer: Its TGI is 76.5 µM.

Question: What about the GI50 [33] of the same molecule?
Answer: Its GI50 is 3.66 µM.

Question: And the TGI [33]?
Answer: The TGI was 14.6 µM.

Question: And the GI50 [34]?
Answer: Its GI50 is 3.47 µM.

Question: And the TGI [34]?
Answer: Its TGI is over 100 µM.

Question: And the GI50 [35]?
Answer: Its GI50 is 3.6 µM.

Question: What about the TGI [35] of the same molecule?
Answer: Its TGI is over 100 µM.

Question: What about the GI50 [36] of the same molecule?
Answer: The GI50 was 3.97 µM.

Question: What about the TGI [36] of the same molecule?
Answer: The TGI was over 100 µM.

Question: And the GI50 [37]?
Answer: The GI50 was 1340 nM.

Question: And the TGI [37]?
Answer: The TGI was 5.63 µM.

Question: And the GI50 [38]?
Answer: Its GI50 is 3.72 µM.

Question: What about the TGI [38] of the same molecule?
Answer: The TGI was over 100 µM.

Question: And the GI50 [39]?
Answer: The GI50 was 2460 nM.

Question: And the TGI [39]?
Answer: Its TGI is 9.48 µM.

Question: What about the GI50 [40] of the same molecule?
Answer: Its GI50 is 1120 nM.

Question: What about the TGI [40] of the same molecule?
Answer: Its TGI is 2330 nM.

Question: What about the GI50 [41] of the same molecule?
Answer: Its GI50 is 2480 nM.

Question: And the TGI [41]?
Answer: Its TGI is 7.38 µM.

Question: And the GI50 [42]?
Answer: The GI50 was 605 nM.

Question: And the TGI [42]?
Answer: The TGI was 2090 nM.

Question: And the GI50 [43]?
Answer: The GI50 was 3.52 µM.

Question: What about the TGI [43] of the same molecule?
Answer: The TGI was 16 µM.

Question: What about the GI50 [44] of the same molecule?
Answer: Its GI50 is 1970 nM.

Question: What about the TGI [44] of the same molecule?
Answer: Its TGI is 4.53 µM.

Question: What about the GI50 [45] of the same molecule?
Answer: Its GI50 is 3.2 µM.

Question: What about the TGI [45] of the same molecule?
Answer: Its TGI is over 100 µM.

Question: And the GI50 [46]?
Answer: Its GI50 is 1890 nM.

Question: What about the TGI [46] of the same molecule?
Answer: The TGI was 5.5 µM.

Question: And the GI50 [47]?
Answer: Its GI50 is 412 nM.

Question: What about the TGI [47] of the same molecule?
Answer: Its TGI is over 100 µM.

Question: And the GI50 [48]?
Answer: Its GI50 is 4.29 µM.

Question: What about the TGI [48] of the same molecule?
Answer: The TGI was over 100 µM.

Question: What about the GI50 [49] of the same molecule?
Answer: Its GI50 is 466 nM.

Question: And the TGI [49]?
Answer: Its TGI is over 100 µM.

Question: And the GI50 [50]?
Answer: The GI50 was 2600 nM.

Question: What about the TGI [50] of the same molecule?
Answer: The TGI was over 100 µM.

Question: What about the GI50 [51] of the same molecule?
Answer: Its GI50 is 1370 nM.

Question: And the TGI [51]?
Answer: Its TGI is 3.83 µM.

Question: And the GI50 [52]?
Answer: Its GI50 is 2760 nM.

Question: And the TGI [52]?
Answer: The TGI was 19.9 µM.
